According to the NIST ThermoML archive (doi:10.1021/je1005196):
± gives the expanded uncertainty stated by the source.

Tests used:
[1] = Liquid; for speed of sound / mass density: 101.33 kPa; for speed of sound: Linear variable-path acoustic interferometer; for mass density: Pycnometric method
[2] = excess molar enthalpy (molar enthalpy of mixing); xn = mol fraction of the nth substance listed; conditions: 308.15 K, 101 kPa, Liquid, Calvet calorimetry
[3] = xn = mol fraction of the nth substance listed; conditions: 308.15 K, 101 kPa, Liquid; for excess molar volume: Direct dilatometry; for speed of sound: Linear variable-path acoustic interferometer
[4] = 298.15 K, Closed cell (Static) method

SMILES: Cc1ccccc1N [2-methylaniline]
- speed of sound ([1]; 298.15 K): 1602 ± 3 m/s
- mass density ([1]; 298.15 K): 994.2 ± 0.6 kg/m3
- vapor or sublimation pressure [1, 4]: 0.04 kPa
- vapor or sublimation pressure ([1]; 308.15 K): 0.0667 ± 0.08 kPa

SMILES: Cc1ccccc1N [2-methylaniline] + C1CCOCC1
- excess molar enthalpy ([2]; x2 = 0.0701): -0.0286 ± 0.000693 kcal/mol
- excess molar enthalpy ([2]; x2 = 0.1765): -0.0678 ± 0.00151 kcal/mol
- excess molar enthalpy ([2]; x2 = 0.2379): -0.0874 ± 0.00191 kcal/mol
- excess molar enthalpy ([2]; x2 = 0.295): -0.103 ± 0.00225 kcal/mol
- excess molar enthalpy ([2]; x2 = 0.3344): -0.113 ± 0.00239 kcal/mol
- excess molar enthalpy ([2]; x2 = 0.3911): -0.124 ± 0.00263 kcal/mol
- excess molar enthalpy ([2]; x2 = 0.435): -0.137 ± 0.00287 kcal/mol
- excess molar enthalpy ([2]; x2 = 0.4901): -0.137 ± 0.00287 kcal/mol
- excess molar enthalpy ([2]; x2 = 0.5521): -0.139 ± 0.00311 kcal/mol
- excess molar enthalpy ([2]; x2 = 0.6276): -0.136 ± 0.00287 kcal/mol
- excess molar enthalpy ([2]; x2 = 0.6982): -0.126 ± 0.00263 kcal/mol
- excess molar enthalpy ([2]; x2 = 0.741): -0.117 ± 0.00263 kcal/mol
- excess molar enthalpy ([2]; x2 = 0.8546): -0.0792 ± 0.00174 kcal/mol
- excess molar enthalpy ([2]; x2 = 0.9201): -0.048 ± 0.00108 kcal/mol
- excess molar volume ([3]; x2 = 0.1881): -3.94e-07 ± 5e-09 m3/mol
- excess molar volume ([3]; x2 = 0.2321): -4.57e-07 ± 5e-09 m3/mol
- excess molar volume ([3]; x2 = 0.2967): -5.47e-07 ± 6e-09 m3/mol
- excess molar volume ([3]; x2 = 0.3245): -5.75e-07 ± 6e-09 m3/mol
- excess molar volume ([3]; x2 = 0.3834): -6.36e-07 ± 7e-09 m3/mol
- excess molar volume ([3]; x2 = 0.4704): -7.08e-07 ± 8e-09 m3/mol
- excess molar volume ([3]; x2 = 0.5181): -7.32e-07 ± 8e-09 m3/mol
- excess molar volume ([3]; x2 = 0.5423): -7.37e-07 ± 8e-09 m3/mol
- excess molar volume ([3]; x2 = 0.6112): -7.45e-07 ± 8e-09 m3/mol
- excess molar volume ([3]; x2 = 0.6877): -7.22e-07 ± 8e-09 m3/mol
- excess molar volume ([3]; x2 = 0.7414): -6.82e-07 ± 7e-09 m3/mol
- excess molar volume ([3]; x2 = 0.8213): -5.66e-07 ± 6e-09 m3/mol
- excess molar volume ([3]; x2 = 0.8974): -3.81e-07 ± 5e-09 m3/mol
- excess molar volume ([3]; x2 = 0.9426): -2.35e-07 ± 3e-09 m3/mol
- speed of sound ([3]; x2 = 0.0832): 1535 ± 3 m/s
- speed of sound ([3]; x2 = 0.1451): 1505 ± 3 m/s
- speed of sound ([3]; x2 = 0.2102): 1475 ± 3 m/s
- speed of sound ([3]; x2 = 0.2918): 1441 ± 3 m/s
- speed of sound ([3]; x2 = 0.3581): 1414 ± 3 m/s
- speed of sound ([3]; x2 = 0.4002): 1399 ± 3 m/s
- speed of sound ([3]; x2 = 0.4981): 1364 ± 3 m/s
- speed of sound ([3]; x2 = 0.5638): 1343 ± 3 m/s
- speed of sound ([3]; x2 = 0.6118): 1328 ± 3 m/s
- speed of sound ([3]; x2 = 0.7148): 1299 ± 3 m/s
- speed of sound ([3]; x2 = 0.7981): 1277 ± 3 m/s
- speed of sound ([3]; x2 = 0.8412): 1267 ± 3 m/s
- speed of sound ([3]; x2 = 0.9003): 1253 ± 3 m/s
- speed of sound ([3]; x2 = 0.9628): 1240 ± 3 m/s

SMILES: CNc1ccccc1 [N-methylaniline]
- speed of sound ([1]; 298.15 K): 1572 ± 3 m/s
- mass density ([1]; 298.15 K): 982.4 ± 1.3 kg/m3
- vapor or sublimation pressure [1, 4]: 0.0667 ± 0.08 kPa
- vapor or sublimation pressure ([1]; 308.15 K): 0.1067 ± 0.08 kPa

SMILES: CNc1ccccc1 [N-methylaniline] + C1CCOCC1
- excess molar enthalpy ([2]; x2 = 0.0856): -0.0264 ± 0.000645 kcal/mol
- excess molar enthalpy ([2]; x2 = 0.1321): -0.0407 ± 0.000932 kcal/mol
- excess molar enthalpy ([2]; x2 = 0.1976): -0.06 ± 0.00134 kcal/mol
- excess molar enthalpy ([2]; x2 = 0.2434): -0.0727 ± 0.0016 kcal/mol
- excess molar enthalpy ([2]; x2 = 0.3122): -0.0899 ± 0.00196 kcal/mol
- excess molar enthalpy ([2]; x2 = 0.3876): -0.105 ± 0.00229 kcal/mol
- excess molar enthalpy ([2]; x2 = 0.4444): -0.114 ± 0.00239 kcal/mol
- excess molar enthalpy ([2]; x2 = 0.4878): -0.119 ± 0.00263 kcal/mol
- excess molar enthalpy ([2]; x2 = 0.5548): -0.122 ± 0.00263 kcal/mol
- excess molar enthalpy ([2]; x2 = 0.6233): -0.121 ± 0.00263 kcal/mol
- excess molar enthalpy ([2]; x2 = 0.6921): -0.113 ± 0.00239 kcal/mol
- excess molar enthalpy ([2]; x2 = 0.7432): -0.104 ± 0.00227 kcal/mol
- excess molar enthalpy ([2]; x2 = 0.8767): -0.0624 ± 0.00139 kcal/mol
- excess molar enthalpy ([2]; x2 = 0.9549): -0.0256 ± 0.000621 kcal/mol
- excess molar volume ([3]; x2 = 0.0764): -7.2e-08 ± 2e-09 m3/mol
- excess molar volume ([3]; x2 = 0.1416): -1.25e-07 ± 3e-09 m3/mol
- excess molar volume ([3]; x2 = 0.1921): -1.59e-07 ± 3e-09 m3/mol
- excess molar volume ([3]; x2 = 0.244): -1.89e-07 ± 3e-09 m3/mol
- excess molar volume ([3]; x2 = 0.2905): -2.1e-07 ± 3e-09 m3/mol
- excess molar volume ([3]; x2 = 0.3451): -2.27e-07 ± 3e-09 m3/mol
- excess molar volume ([3]; x2 = 0.3984): -2.37e-07 ± 3e-09 m3/mol
- excess molar volume ([3]; x2 = 0.4515): -2.4e-07 ± 3e-09 m3/mol
- excess molar volume ([3]; x2 = 0.5224): -2.34e-07 ± 3e-09 m3/mol
- excess molar volume ([3]; x2 = 0.613): -2.1e-07 ± 3e-09 m3/mol
- excess molar volume ([3]; x2 = 0.6873): -1.78e-07 ± 3e-09 m3/mol
- excess molar volume ([3]; x2 = 0.7531): -1.44e-07 ± 3e-09 m3/mol
- excess molar volume ([3]; x2 = 0.8231): -1.03e-07 ± 2e-09 m3/mol
- excess molar volume ([3]; x2 = 0.9191): -4.5e-08 ± 2e-09 m3/mol
- speed of sound ([3]; x2 = 0.0541): 1509 ± 3 m/s
- speed of sound ([3]; x2 = 0.1321): 1490 ± 3 m/s
- speed of sound ([3]; x2 = 0.2316): 1468 ± 3 m/s
- speed of sound ([3]; x2 = 0.2811): 1457 ± 3 m/s
- speed of sound ([3]; x2 = 0.3612): 1437 ± 3 m/s
- speed of sound ([3]; x2 = 0.4112): 1424 ± 3 m/s
- speed of sound ([3]; x2 = 0.4932): 1400 ± 3 m/s
- speed of sound ([3]; x2 = 0.5638): 1377 ± 3 m/s
- speed of sound ([3]; x2 = 0.6148): 1360 ± 3 m/s
- speed of sound ([3]; x2 = 0.6919): 1332 ± 3 m/s
- speed of sound ([3]; x2 = 0.7418): 1313 ± 3 m/s
- speed of sound ([3]; x2 = 0.8141): 1287 ± 3 m/s
- speed of sound ([3]; x2 = 0.8992): 1257 ± 3 m/s
- speed of sound ([3]; x2 = 0.9514): 1239 ± 3 m/s

SMILES: Nc1ccccc1 [aniline]
- speed of sound ([1]; 298.15 K): 1635 ± 3 m/s
- mass density ([1]; 298.15 K): 1017.2 ± 0.6 kg/m3
- vapor or sublimation pressure [1, 4]: 0.0933 ± 0.08 kPa
- vapor or sublimation pressure ([1]; 308.15 K): 0.12 ± 0.08 kPa

SMILES: Nc1ccccc1 [aniline] + C1CCOCC1
- excess molar enthalpy ([2]; x2 = 0.0545): -0.02 ± 0.000502 kcal/mol
- excess molar enthalpy ([2]; x2 = 0.1711): -0.0599 ± 0.00134 kcal/mol
- excess molar enthalpy ([2]; x2 = 0.2234): -0.0767 ± 0.0017 kcal/mol
- excess molar enthalpy ([2]; x2 = 0.2761): -0.0929 ± 0.00203 kcal/mol
- excess molar enthalpy ([2]; x2 = 0.3509): -0.114 ± 0.00239 kcal/mol
- excess molar enthalpy ([2]; x2 = 0.4214): -0.132 ± 0.00287 kcal/mol
- excess molar enthalpy ([2]; x2 = 0.5512): -0.155 ± 0.00335 kcal/mol
- excess molar enthalpy ([2]; x2 = 0.5879): -0.158 ± 0.00335 kcal/mol
- excess molar enthalpy ([2]; x2 = 0.6213): -0.159 ± 0.00335 kcal/mol
- excess molar enthalpy ([2]; x2 = 0.6821): -0.157 ± 0.00335 kcal/mol
- excess molar enthalpy ([2]; x2 = 0.7511): -0.147 ± 0.00311 kcal/mol
- excess molar enthalpy ([2]; x2 = 0.8145): -0.128 ± 0.00287 kcal/mol
- excess molar enthalpy ([2]; x2 = 0.8914): -0.0893 ± 0.00196 kcal/mol
- excess molar enthalpy ([2]; x2 = 0.9413): -0.0539 ± 0.00122 kcal/mol
- excess molar volume ([3]; x2 = 0.0702): -9.7e-08 ± 2e-09 m3/mol
- excess molar volume ([3]; x2 = 0.1767): -2.45e-07 ± 3e-09 m3/mol
- excess molar volume ([3]; x2 = 0.2381): -3.22e-07 ± 4e-09 m3/mol
- excess molar volume ([3]; x2 = 0.2952): -3.84e-07 ± 5e-09 m3/mol
- excess molar volume ([3]; x2 = 0.3347): -4.2e-07 ± 5e-09 m3/mol
- excess molar volume ([3]; x2 = 0.3913): -4.59e-07 ± 5e-09 m3/mol
- excess molar volume ([3]; x2 = 0.4354): -4.8e-07 ± 5e-09 m3/mol
- excess molar volume ([3]; x2 = 0.4904): -4.92e-07 ± 6e-09 m3/mol
- excess molar volume ([3]; x2 = 0.5525): -4.87e-07 ± 5e-09 m3/mol
- excess molar volume ([3]; x2 = 0.628): -4.56e-07 ± 5e-09 m3/mol
- excess molar volume ([3]; x2 = 0.6989): -4.01e-07 ± 5e-09 m3/mol
- excess molar volume ([3]; x2 = 0.7412): -3.59e-07 ± 4e-09 m3/mol
- excess molar volume ([3]; x2 = 0.8548): -2.15e-07 ± 3e-09 m3/mol
- excess molar volume ([3]; x2 = 0.9204): -1.19e-07 ± 3e-09 m3/mol
- speed of sound ([3]; x2 = 0.0912): 1564 ± 3 m/s
- speed of sound ([3]; x2 = 0.1516): 1543 ± 3 m/s
- speed of sound ([3]; x2 = 0.2414): 1510 ± 3 m/s
- speed of sound ([3]; x2 = 0.299): 1490 ± 3 m/s
- speed of sound ([3]; x2 = 0.3541): 1470 ± 3 m/s
- speed of sound ([3]; x2 = 0.4417): 1438 ± 3 m/s
- speed of sound ([3]; x2 = 0.5312): 1404 ± 3 m/s
- speed of sound ([3]; x2 = 0.5943): 1379 ± 3 m/s
- speed of sound ([3]; x2 = 0.6511): 1357 ± 3 m/s
- speed of sound ([3]; x2 = 0.7344): 1324 ± 3 m/s
- speed of sound ([3]; x2 = 0.8117): 1294 ± 3 m/s
- speed of sound ([3]; x2 = 0.883): 1267 ± 3 m/s
- speed of sound ([3]; x2 = 0.9413): 1245 ± 3 m/s
- speed of sound ([3]; x2 = 0.9812): 1231 ± 3 m/s

SMILES: C1CCOCC1 [tetrahydropyran]
- mass density ([1]; 298.15 K): 868.6 ± 0.5 kg/m3
- vapor or sublimation pressure [1, 4]: 9.533 ± 0.08 kPa
- vapor or sublimation pressure ([1]; 308.15 K): 13.79 ± 0.47 kPa
